Measurements published in article PMC6837340, “Streptococcal phosphotransferase system imports unsaturated hyaluronan disaccharide derived from host extracellular matrices” (PLoS ONE, 2019).

B1: Streptococcus agalactiae GAG-PTS EIIA^ΔHA (EIIA for unsaturated hyaluronan disaccharide) (natural protein)
chain: MIKIIIVAHGNFPDGILSSLELIAGHQEYVVGINFIAGMSSNDVRVALQREVIDFKEILVLTDLLGGTPFNVSSALSVEYTDKKIKVLSGLNLSMLMEAVLSRTMFEHVDDLVDKVITSSHEGIVDFSTCLATQTAEATFEGGI
notes: PTS EIIA component of the GAG genetic cluster, gene gbs1890, Streptococcus agalactiae (gbs = strain NEM316); 144 residues (Met1-Ile144); Leu131-Ile144 not seen in the crystal structure; Cloned between NdeI and XhoI of pET21b with a reverse primer without a stop codon, so a C-terminal vector-derived His tag is likely (surmised); No PDB id is printed for the structure solved here; also called …

Key:
[1] = molecular target: T1, GAG-PTS (EIIABCD; phosphotransferase system for import of unsaturated hyaluronan disaccharide) (Streptococcus agalactiae, UniProt Q8DXF2+Q8DXF3); assay: PTS assay: pyruvate from phosphoenolpyruvate, lactate dehydrogenase-coupled NADH oxidation at […] nm, toluene-treated cells; type: cell-based; conditions: 10 mM sugar, 5 mM phosphoenolpyruvate, 5 mM MgCl2, 10 mM NaF, 0.1 M potassium phosphate pH 7.5, 37°C; EIIB-EIIC-EIID deletion mutant as control
T1 construct: gene SAG1899; native complex in toluene-permeabilized wild-type S. agalactiae cells; endogenous EI and HPr also required; EIIA dimer in crystal, 144 residues; with PTS mannose family transporter subunit IIA (EIIA)
T1 sequence (Q8DXF1 entry or part of it, one chain of several, further chain): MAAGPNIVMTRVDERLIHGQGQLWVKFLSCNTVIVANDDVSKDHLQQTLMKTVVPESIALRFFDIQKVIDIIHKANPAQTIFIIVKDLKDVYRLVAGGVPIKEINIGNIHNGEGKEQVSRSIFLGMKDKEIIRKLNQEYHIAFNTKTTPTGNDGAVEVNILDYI
T1 sequence (Q8DXF2 entry or part of it, one chain of several): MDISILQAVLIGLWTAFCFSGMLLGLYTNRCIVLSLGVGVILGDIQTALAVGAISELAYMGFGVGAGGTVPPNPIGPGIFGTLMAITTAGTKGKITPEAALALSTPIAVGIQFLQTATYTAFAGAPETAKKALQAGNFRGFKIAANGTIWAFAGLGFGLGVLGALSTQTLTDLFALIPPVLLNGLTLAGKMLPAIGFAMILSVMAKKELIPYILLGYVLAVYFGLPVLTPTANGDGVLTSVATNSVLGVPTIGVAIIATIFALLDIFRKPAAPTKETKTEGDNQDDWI
T1 sequence (Q8DXF3 entry or part of it, one chain of several): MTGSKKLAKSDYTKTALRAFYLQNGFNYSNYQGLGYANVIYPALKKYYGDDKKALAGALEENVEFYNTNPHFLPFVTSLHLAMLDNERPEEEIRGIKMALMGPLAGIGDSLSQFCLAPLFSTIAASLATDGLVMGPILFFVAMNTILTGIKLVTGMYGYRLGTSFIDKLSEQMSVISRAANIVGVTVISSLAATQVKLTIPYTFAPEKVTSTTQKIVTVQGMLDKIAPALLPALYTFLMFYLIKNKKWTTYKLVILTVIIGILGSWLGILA

[2] = molecular target: the molecule itself; assay: crystal structure; sitting drop vapor diffusion, 20% PEG 3,350, 0.2 M sodium thiocyanate pH 6.9, 20°C; space group P1, six molecules in the asymmetric unit; biological unit judged a dimer with PISA software

Molecule	PTS assay: pyruvate from phosphoenolpyruvate, lactate dehydrogenase-coupled NADH [1]	stoichiometry N [2]
CC(=O)N[C@H]1C(O)O[C@H](CO)[C@@H](O)[C@@H]1O[C@@H]1OC(C(=O)O)=C[C@H](O)[C@H]1O (some centres unmarked) [ΔHA, unsaturated hyaluronan disaccharide]	S. agalactiae imports unsaturated hyaluronan disaccharide using the GAG-PTS encoded in the GAG genetic cluster	
B1		2
